Measured values from ChEMBL document CHEMBL1157666, “Design, synthesis and biological evaluation of thiazolidinone derivatives as potential EGFR and HER-2 kinase inhibitors” (Bioorg Med Chem, 2010).

Tests used:
[1] = tested on: MCF7; assay: cells; details: Homo sapiens, MCF7, 48 h
[2] = target: Epidermal growth factor receptor (Homo sapiens, UniProt P00533); assay: biochemical
Description: Inhibition of cloned EGFR autophosphorylation expressed in baculovirus-infected Sf9 cells by solid-phase ELISA

[3] = target: T1, Receptor tyrosine-protein kinase erbB-2 (Homo sapiens, UniProt P04626); assay: biochemical
Description: (§1) Inhibition of human cloned HER2 autophosphorylation expressed in baculovirus-infected Sf9 cells by solid-phase ELISA

[4] = target: T1, Receptor tyrosine-protein kinase erbB-2
Description: as §1

Sequence of Epidermal growth factor receptor (P00533 whole entry): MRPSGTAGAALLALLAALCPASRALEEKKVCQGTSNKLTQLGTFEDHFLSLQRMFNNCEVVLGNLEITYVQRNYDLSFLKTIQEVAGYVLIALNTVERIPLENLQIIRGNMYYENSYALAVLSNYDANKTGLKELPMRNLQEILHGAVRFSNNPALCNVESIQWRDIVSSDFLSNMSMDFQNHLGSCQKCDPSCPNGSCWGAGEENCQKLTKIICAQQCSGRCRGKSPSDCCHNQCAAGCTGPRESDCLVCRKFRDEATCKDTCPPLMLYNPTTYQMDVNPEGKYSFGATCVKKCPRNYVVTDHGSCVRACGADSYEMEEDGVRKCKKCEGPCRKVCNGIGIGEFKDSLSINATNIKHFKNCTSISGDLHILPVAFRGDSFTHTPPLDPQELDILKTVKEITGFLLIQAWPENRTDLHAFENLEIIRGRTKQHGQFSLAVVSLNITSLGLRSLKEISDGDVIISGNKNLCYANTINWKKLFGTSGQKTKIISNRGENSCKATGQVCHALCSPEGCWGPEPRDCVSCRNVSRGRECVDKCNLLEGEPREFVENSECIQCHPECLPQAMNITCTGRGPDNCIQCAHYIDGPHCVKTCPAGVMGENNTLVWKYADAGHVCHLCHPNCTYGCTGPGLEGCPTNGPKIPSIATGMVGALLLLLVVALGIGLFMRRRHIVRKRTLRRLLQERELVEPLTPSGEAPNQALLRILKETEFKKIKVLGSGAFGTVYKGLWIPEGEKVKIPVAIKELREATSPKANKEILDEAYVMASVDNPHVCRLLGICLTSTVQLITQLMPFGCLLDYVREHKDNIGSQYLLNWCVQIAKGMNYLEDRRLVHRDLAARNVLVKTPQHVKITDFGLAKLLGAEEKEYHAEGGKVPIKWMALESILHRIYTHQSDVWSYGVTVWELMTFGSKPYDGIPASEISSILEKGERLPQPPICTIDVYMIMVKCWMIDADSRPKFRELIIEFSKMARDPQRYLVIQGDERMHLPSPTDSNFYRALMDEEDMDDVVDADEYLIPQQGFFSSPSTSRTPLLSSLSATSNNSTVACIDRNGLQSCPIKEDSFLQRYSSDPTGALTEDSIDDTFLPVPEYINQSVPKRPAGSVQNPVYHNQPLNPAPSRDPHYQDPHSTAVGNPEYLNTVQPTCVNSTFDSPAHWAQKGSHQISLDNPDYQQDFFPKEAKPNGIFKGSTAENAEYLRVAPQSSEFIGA
T1 sequence (P04626 whole entry): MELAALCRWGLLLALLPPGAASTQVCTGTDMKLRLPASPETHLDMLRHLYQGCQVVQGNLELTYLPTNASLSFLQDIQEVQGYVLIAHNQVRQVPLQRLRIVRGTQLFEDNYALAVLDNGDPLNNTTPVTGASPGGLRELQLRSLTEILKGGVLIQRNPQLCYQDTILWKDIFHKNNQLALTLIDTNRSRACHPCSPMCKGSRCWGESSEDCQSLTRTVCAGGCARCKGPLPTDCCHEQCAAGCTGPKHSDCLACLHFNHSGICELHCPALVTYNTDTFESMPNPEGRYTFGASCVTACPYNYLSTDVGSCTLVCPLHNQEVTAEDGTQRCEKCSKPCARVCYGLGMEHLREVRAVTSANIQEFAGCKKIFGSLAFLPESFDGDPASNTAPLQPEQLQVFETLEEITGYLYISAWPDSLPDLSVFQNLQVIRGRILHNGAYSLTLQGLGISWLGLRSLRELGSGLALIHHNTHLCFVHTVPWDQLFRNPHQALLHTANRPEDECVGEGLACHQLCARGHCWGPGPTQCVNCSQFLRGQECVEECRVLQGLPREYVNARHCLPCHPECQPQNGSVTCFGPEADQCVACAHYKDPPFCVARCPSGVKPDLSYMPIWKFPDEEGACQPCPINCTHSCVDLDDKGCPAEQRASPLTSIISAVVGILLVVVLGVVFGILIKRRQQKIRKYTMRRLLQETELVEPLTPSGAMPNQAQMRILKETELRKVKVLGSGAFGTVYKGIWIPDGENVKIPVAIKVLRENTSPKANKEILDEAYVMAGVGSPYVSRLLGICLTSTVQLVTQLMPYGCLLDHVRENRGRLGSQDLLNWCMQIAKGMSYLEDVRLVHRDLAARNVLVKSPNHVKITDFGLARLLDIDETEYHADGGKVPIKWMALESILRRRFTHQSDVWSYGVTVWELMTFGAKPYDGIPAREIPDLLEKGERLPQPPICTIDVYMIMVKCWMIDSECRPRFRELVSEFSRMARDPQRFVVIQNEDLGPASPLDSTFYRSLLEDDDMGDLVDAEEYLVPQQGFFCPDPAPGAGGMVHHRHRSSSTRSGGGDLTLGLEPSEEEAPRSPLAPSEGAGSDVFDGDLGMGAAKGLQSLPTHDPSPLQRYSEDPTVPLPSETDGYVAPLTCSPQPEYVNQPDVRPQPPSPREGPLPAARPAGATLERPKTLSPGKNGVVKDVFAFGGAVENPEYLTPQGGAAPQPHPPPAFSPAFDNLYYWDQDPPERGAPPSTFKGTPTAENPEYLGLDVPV

| Compound | IC50 [1] [µM] | IC50 [2] [µM] | IC50 [3] [µM] | IC50 [4] [µM] |
| --- | --- | --- | --- | --- |
| O=C1CSC(N/N=C/c2cc(Br)ccc2O)=N1 | 0.06 |  |  | 0.42 |
| O=C1CSC(N/N=C/c2cccc(Br)c2)=N1 | 2.42 | 7.46 | 10.3 |  |
| O=C1CSC(NN=C2CCCCC2)=N1 | 32.1 | 41 | > 50 |  |
| O=C1CSC(N/N=C/c2cc(Br)cc(Br)c2O)=N1 | 0.62 | 1.24 | 3.73 |  |
| O=C1CSC(N/N=C/c2cc(Cl)cc(Cl)c2O)=N1 | 1.56 | 1.46 | 4.51 |  |
| O=C1CSC(N/N=C/c2cc(F)ccc2O)=N1 | 0.27 | 0.97 | 3.59 |  |
| O=C1CSC(N/N=C/c2cc(Cl)ccc2O)=N1 | 0.18 | 0.56 | 1.78 |  |
| O=C1CSC(NN=C2CCCCCC2)=N1 | 27.6 | 36 | 47 |  |
| O=C1CSC(NN=C2CCCCCCC2)=N1 | 18.4 |  | 31 |  |
| O=C1CSC(NN=C2CCC2)=N1 | 46.3 | > 50 | > 50 |  |
| O=C1CSC(N/N=C/c2cccc([N+](=O)[O-])c2)=N1 | 12.6 | 26.6 | 37.6 |  |
| COc1cccc(/C=N/NC2=NC(=O)CS2)c1 | 9.73 | 31.2 | 45.5 |  |
| O=C1CSC(NN=C2CCCC2)=N1 | 38.5 | > 50 | > 50 |  |

Now from value to molecule:

| IC50 [1] [µM] | IC50 [2] [µM] | IC50 [3] [µM] | IC50 [4] [µM] | Compound |
| --- | --- | --- | --- | --- |
| 0.97 | 1.72 | 2.43 |  | O=C1CSC(N/N=C/c2ccc(Br)cc2)=N1 |
| 1.82 | 1.94 | 2.75 |  | O=C1CSC(N/N=C/c2ccc(Cl)cc2)=N1 |
| 1.58 | 2.18 | 3.89 |  | O=C1CSC(N/N=C/c2ccc(F)cc2)=N1 |
| 1.67 | 4.71 | 6.93 |  | O=C1CSC(N/N=C/c2ccc(O)cc2)=N1 |
| 2.77 | 6.82 | 8.46 |  | O=C1CSC(N/N=C/c2ccc([N+](=O)[O-])cc2)=N1 |
| 2.05 |  | 5.83 |  | Cc1ccc(/C=N/NC2=NC(=O)CS2)cc1 |
| 3.16 | 5.78 | 9.17 |  | COc1ccc(/C=N/NC2=NC(=O)CS2)cc1 |
| 11.8 | 19.3 | 27.8 |  | O=C1CSC(N/N=C/c2cccc(O)c2)=N1 |
| 4.31 | 10.8 | 14.3 |  | O=C1CSC(N/N=C/c2cccc(Cl)c2)=N1 |
| 8.19 | 23.5 | 31.8 |  | Cc1cccc(/C=N/NC2=NC(=O)CS2)c1 |
| 7.78 | 13.5 | 21.7 |  | O=C1CSC(N/N=C/c2cccc(F)c2)=N1 |
